From US4563462A, “Substance AX-2, a process for producing the same and an antitumor composition containing the same” (Kyowa Hakko Kogyo Kabushiki, priority 1982, dated 1986)

What was measured:
Melanoma B16 tumour = experiment: Effects on Melanoma B16 tumour (survival, ip.); format: in vivo, C57 BL/6 male mouse
Method: (2) Effects on Melanoma B16 tumour:
Tumour cells were collected from Melanoma B16 tumour cells lined in the abdominal cavity of a C57 BL/6 male mouse and suspended in a sterilized physiological solution of sodium chloride at a concentration of 2.5×10^7 cell/ml, of which 0.2 ml was implanted into the abdominal cavity of each mouse. The anti-tumour activity was indicated by T/C % where T and C respectively indicate the average survival days of treated and untreated groups.
As apparent from this table, it was noted that by administration of AX-2 in an amount of 6 mg/kg, the T/C value was more than 277% and 1/5 of the mice were alive 60 days after the beginning of the administration. The therapeutic index [a dose showing a maximum therapeutic effect/a dose showing a T/C of 130%] was 193.

Sarcoma 180 solid tumour = experiment: Effect on Sarcoma 180 solid tumour (volume ratio T/C, iv.); format: in vivo, ddy male mouse; conditions: for T/C (tumour volume ratio): 7 days after administration; for Survials (7 days): Sarcoma 180 mice
Method: (1) Effect on Sarcoma 180 solid tumour:
(§1) On each occasion, 5×10^6 cells of Sarcoma 180 solid tumour were implanted into the abdominal cavity of a ddy male mouse. 7 days after this, the cells were collected from the ascites.The cells were washed once with a sterilized physiological solution of sodium chloride and suspended in a sterilized physiological solution of sodium chloride at a concentration of 5×10^7 cells/ml, of which 0.1 ml was implanted under the skin at the right artpit of a ddy male mouse having a weight of 20±2 g. 24 hours after this, the active substance was administered into the vein at the tail of each mouse of a group consisting of 5 mice. In order to investigate the anti-tumour activity, 7 days after administration of AX-2, the major axis (a) and minor axis (b) of the tumour were measured, from which the volume of the tumour was calculated as a X b^2 /2. The effect of AX-2 is expressed by T/C which denotes the volume ratio of T [mice administered with AX-2 ] to C (untreated group). Table 1 indicates the effect of AX-2 agsinst Sarcoma 180 solid tumour by injection (iv.).
A T/C of 0.25 was obtained from the group, to which each 15 mg/kg of AX-2 had been administered. In this table, ED50 denotes a dose capable of reducing the volume of the tumour to 50% of the corresponding volume of the control group. Such volumes were calculated by plotting a relation between the dose and T/C on a logarithmic graph which indiates T/C on the ordinate and the dose on the abscissa, and calculating the dose and anti-tumour activity as a straight line by the method of least squares. The dose corresponding to T/C of 0.5 is defined as ED50.

Solubility = format: physicochemical
Peripherical leucocytes = Peripherical leucocytes count (WBC) in Sarcoma 180 bearing mice; format: in vivo, ddy male mouse; conditions: blood 4 days after tumour implantation
Method: as §1
The peripherical leucocytes count (WBC) was measured by using a micro cell counter in the following manner. Sarcoma 180 solid tumour was implanted by injection (ip.). 4 days after this, blood was collected from the eye ground, of which 20 μl was added to 9.98 ml of Cellkit-7 (a reagent commercially available from Toyo Rika K.K., Japan) to dissolve the red cells. In this solution a drop of saponin was dispersed, followed by measuring with a micro cell counter.

[1] = Acute toxicity (LD50) of AX-2, single injection, 14 days observation, Behrens-Korber's method; set-up: species or system Mice (ddy strain); conditions: mouse, in vivo, male ddy mice
Description: The acute toxicity and anti-tumour activity of AX-2 are as follows. I. Acute toxicity (LD50) of AX-2:
Mice (ddy strain; male; weight 20±2 g; each group consisting of 5 mice) were used as test animals. On each occasion, the active substance of this invention was once administered to the animal by injection (ip. or iv.).

## COC1=C(C)C(=O)C2=C(C1=O)C(COC(N)=O)C1(OC)NCC3C1N23 (stereo not shown) [AX-2]
Melanoma B16 tumour
  therapeutic index [a dose showing a maximum therapeutic effect/a dose showing a T/C of 130%]: 193
Melanoma B16 tumour; 0.031 mg/kg
  Average survival days (days ± SD): 18.4 ± 1.5 days
  Survived after 60 days after implantation: 0/5
  T/C (average survival days treated/untreated): 144%
Melanoma B16 tumour; 0.063 mg/kg
  Average survival days (days ± SD): 13.0 ± 1.7 days
  Survived after 60 days after implantation: 0/5
  T/C (average survival days treated/untreated): 140%
Melanoma B16 tumour; 0.125 mg/kg
  Average survival days (days ± SD): 19.4 ± 2.0 days
  Survived after 60 days after implantation: 0/5
  T/C (average survival days treated/untreated): 152%
Melanoma B16 tumour; 0.25 mg/kg
  Average survival days (days ± SD): 17.8 ± 1.1 days
  Survived after 60 days after implantation: 0/5
  T/C (average survival days treated/untreated): 140%
Melanoma B16 tumour; 0.5 mg/kg
  Average survival days (days ± SD): 21.0 ± 2.8 days
  Survived after 60 days after implantation: 0/5
  T/C (average survival days treated/untreated): 164%
Melanoma B16 tumour; 1.0 mg/kg
  Average survival days (days ± SD): 24.0 ± 3.5 days
  Survived after 60 days after implantation: 0/5
  T/C (average survival days treated/untreated): 189%
Melanoma B16 tumour; 2.0 mg/kg
  Average survival days (days ± SD): 27.4 ± 5.4 days
  Survived after 60 days after implantation: 0/5
  T/C (average survival days treated/untreated): 214%
Melanoma B16 tumour; 4.0 mg/kg
  Average survival days (days ± SD): 33.4 ± 9.2 days
  Survived after 60 days after implantation: 0/5
  T/C (average survival days treated/untreated): 261%
Melanoma B16 tumour; 6.0 mg/kg
  Average survival days (days ± SD): 35.4 ± 5.3 days
  Survived after 60 days after implantation: 1/5
Melanoma B16 tumour; 8.0 mg/kg
  Average survival days (days ± SD): 10.6 ± 4.2 days
  Survived after 60 days after implantation: 0/5
  T/C (average survival days treated/untreated): 93%
Melanoma B16 tumour; 12.0 mg/kg
  Average survival days (days ± SD): 4.8 ± 1.6 days
  Survived after 60 days after implantation: 0/5
  T/C (average survival days treated/untreated): 26%
Sarcoma 180 solid tumour; 1.88 mg/kg
  T/C (tumour volume ratio): 0.77
  Survials (7 days): 4/4
Sarcoma 180 solid tumour; 3.75 mg/kg
  T/C (tumour volume ratio): 0.64
  Survials (7 days): 4/4
Sarcoma 180 solid tumour; 7.5 mg/kg
  T/C (tumour volume ratio): 0.42
  Survials (7 days): 4/4
Sarcoma 180 solid tumour; 10 mg/kg
  T/C (tumour volume ratio): 0.34
  Survials (7 days): 4/4
Sarcoma 180 solid tumour; 15 mg/kg
  T/C (tumour volume ratio): 0.25
  Survials (7 days): 4/4
Sarcoma 180 solid tumour; 30 mg/kg
  T/C (tumour volume ratio): 0.05
  Survials (7 days): 3/4
Sarcoma 180 solid tumour; 7.5 to 15 mg/kg
  effect (dose dependence): the effect increased according to the increased dose
Sarcoma 180 solid tumour; Mus musculus, Sarcoma-180, 168 h, least squares from dose vs T/C log plot, read-out: ED50 (dose reducing tumour volume to 50% of control, T/C 0.5)
  ED50: 5.7 mg/kg
Solubility; ethyl acetate, chloroform, acetone, methanol and ethanol
  Solubility: Soluble
Solubility; petroleum ether and n-hexane
  Solubility: Insoluble
Solubility; water
  Solubility: Slightly soluble
Peripherical leucocytes; 1.88 mg/kg
  Peripherical leucocytes count (WBC) ± SD/mm^3: 7730 ± 49 /mm^3
Peripherical leucocytes; 3.75 mg/kg
  Peripherical leucocytes count (WBC) ± SD/mm^3: 6730 ± 115 /mm^3
Peripherical leucocytes; 7.5 mg/kg
  Peripherical leucocytes count (WBC) ± SD/mm^3: 4100 ± 55 /mm^3
Peripherical leucocytes; 10 mg/kg
  Peripherical leucocytes count (WBC) ± SD/mm^3: 2800 ± 80 /mm^3
Peripherical leucocytes; 15 mg/kg
  Peripherical leucocytes count (WBC) ± SD/mm^3: 2950 ± 42 /mm^3
Peripherical leucocytes; 30 mg/kg
  Peripherical leucocytes count (WBC) ± SD/mm^3: 2300 ± 60 /mm^3
[1]; ip.
  LD50 at 336 h: 7.8 mg/kg
[1]; iv.
  LD50 at 336 h: 27 mg/kg
